Data taken from paper PMC11678869, “Functional Role of Odorant-Binding Proteins in Response to Sex Pheromone Component Z8-14:Ac in Grapholita molesta (Busck)” (Insects, 2024).

Experiments:
rGmolPBP1 = rGmolPBP1 (Grapholita molesta, UniProt A0A2R4SBD6); experiment: Fluorescence competitive binding assay with 1-NPN probe
Description: (§1) Previous researchers have successfully expressed rGmolPBP1, rGmolPBP2, rGmolPBP3, rGmolGOBP1, and rGmolGOBP2 proteins using prokaryotic expression systems. In this article, the DNA sequences of these five GmolPBPs and GmolGOBPs, with the signal peptides removed and restriction sites on both ends, were inserted into the expression vector pET28a(+) linearized with the same restriction enzyme. These vectors were then transformed into Escherichia coli BL21(DE3) and induced by isopropyl-β-d-thiogalactoside (IPTG). Since all five recombinant proteins were expressed in inclusion bodies, they were denatured using 8 M urea and then renatured using a cysteine/cystine REDOX system. The reduced recombinant proteins were purified using an Ni-NTA His Bind Resin column (7Sea Pharmatech Co., Ltd., Shanghai, China). Non-target proteins were washed off with washing buffer (20 mM Tris-HCl (pH 7.4), 20 mM imidazole, 1 mM PMSF, and 250 mM NaCl), and then the target proteins were eluted with elution buffer (20 mM Tris-HCl (pH 7.4), 1 mM PMSF, and 250 mM NaCl) with an increasing concentration of imidazole (50, 100, and 200 mM). Five milliliters of eluents with high target protein content and low levels of contaminants were collected and placed in dialysis tubing (Coolaber, Beijing, China) with a molecular weight cut-off of 3.5 kDa to remove NaCl and imidazole. The purified soluble proteins were stored at −80 °C before use.
(§2) The binding affinities of three rGmolPBPs and two rGmolGOBPs for Z8-14:Ac were determined using an F-2700 fluorescence spectrophotometer (Hitachi, Tokyo, Japan). First, we measured the dissociation constants (Kd) of the rGmolPBPs (or rGmolGOBPs) binding to 1−NPN. Each protein was diluted to 2 μM with 20 mM Tris-HCl buffer (pH 7.4); then, 2 mL of the protein solution was transferred to a quartz cuvette and titrated with 1 mM 1−NPN to a final concentration of 1–18 μM. As the doses of 1−NPN were increased, the increasing amplitude of the fluorescence intensity decreased, and finally, the binding of the protein to 1−NPN reached saturation. The Kd values were calculated using the nonlinear regression method and the Scatchard equation. Second, we measured the inhibitory constant (Ki) of Z8-14:Ac’s competitive binding with each rGmolPBP (or rGmolGOBP) from the protein/1−NPN complex. The initial fluorescence intensity values were measured after a 2 min reaction in 2 mL solution of 20 mM Tris-HCl (pH 7.4) containing 2 µM rGmolPBP (or rGmolGOBP) protein and 2 µM 1−NPN. Then, the solution was titrated with aliquots of 1 mM Z8-14:Ac to obtain final concentrations in the range of 1–14 µM, and the fluorescence intensity value of each reaction was recorded. The Ki values were calculated using the following equation: Ki = [IC50]/(1 + [1 − NPN]/Kd) where IC50 is the concentration of Z8-14:Ac when half of the initial fluorescence intensity value of the rGmolPBP (or GmolGOBP)/1−NPN complex is replaced, [1 − NPN] represents the concentration of free 1−NPN, and Kd is the dissociation constant of the rGmolPBP (or GmolGOBP)/1−NPN complex.

rGmolGOBP1 = rGmolGOBP1 (Grapholita molesta, UniProt H9XTU5); experiment: as above
Description: as §1, §2

rGmolGOBP2 = rGmolGOBP2 (Grapholita molesta, UniProt H9XTU6); experiment: as above
Description: as §1, §2

rGmolPBP2 (wild-type) = rGmolPBP2 (wild-type) (Grapholita molesta, UniProt A0A059VC28); experiment: as above
Description: as §1, §2

rGmolPBP3 = rGmolPBP3 (Grapholita molesta, UniProt A0A059VBP3); experiment: as above
Description: as §1, §2

OFM males = experiment: Field trapping with delta traps, pear orchard; type: in vivo, Grapholita molesta; conditions: pear orchard; for Inhibition Rate of OFM Males: vs 100:4:0
Experimental: (§3) To determine the inhibitory effects on OFM male adults and the impact on the trapping effects of PFM male adults, varying amounts of Z8-14:Ac (0, 5, 10, 25, 50, 75, 100, 125, 150 μg) or Z10-14:Ac (0, 25, 50, 100, 150, 250, 350, 450, and 550 μg) were added to rubber septa loaded with a constant dosage of the main pheromone (500 μg of Z8-12:Ac and 20 μg of E8-12:Ac) of the PFM. Trapping experiments of Z8-14:Ac were carried out in peach and pear orchards in Yan’an and Xinjiang (China), respectively. Trapping tests of Z10-14:Ac were performed in pear orchards in Xinjiang (China). Each orchard had nine plots, with three plots in one field. Each plot consisted of a linear arrangement of traps loaded with a constant dosage of the main pheromones and different percentages of the secondary pheromone Z8-14:Ac or Z10-14:Ac of the PFM. Plots in the same field were placed 30 m apart, and fields were ≥1 km apart. The traps were hung 1.4 m from the ground on a suspension bracket between two rows of peach or pear trees from 10 June to 25 July 2021 in Xinjiang and from 15 June to 30 July 2021 in Yan’an. The positions of the traps within the plot were randomly arranged. Every 5 days, counts were taken, and the traps were rotated to the adjacent position to avoid any potential position effects. The septa loaded with sex pheromone components were replaced with new ones after every 15 days of suspension. The data were analyzed using a one-way ANOVA, and the differences in the average trapping of OFM and PFM males using sex attractants containing different amounts of Z8-14:Ac or Z10-14:Ac were further analyzed using Tukey’s HSD test, both of which were performed using SPSS 23.0.

PFM male antennae = experiment: Electroantennogram (EAG) analysis; set-up: species or system Grapholita funebrana; conditions: 20, 200 and 2000 μg doses
Experimental: (§4) Electroantennogram (EAG) equipment (Syntech, Hilversum, The Netherlands) was used to record the antennal responses of the OFM and PFM adults to Z8-12:Ac, E8-12:Ac, Z8-12:OH, Z8-14:Ac, and Z10-14:Ac. These sex pheromone compounds were diluted with liquid paraffin to prepare a stimulus solution of 100 μg/μL, which was subsequently diluted to 10 and 1 μg/μL. Antenna from 3-day-old OFM and 2- to 4-day-old PFM virgin males were excised at its base, with the distal part of the terminal segment being removed. Then, the treated antenna was attached to electrode holders with SpectraR360 conducting gel. A stimulus controller (model CS-55, Syntegon Technology, Waiblingen, Germany) continuously supplied a humidified air stream at a rate of 500 mL/min. Then, 20 μL of each stimulus solution was adsorbed onto a twice-folded filter paper strip (0.5 cm × 4 cm) placed on the wide section of a l mL pipette tip, which served as an odorant cartridge. Vapor stimuli were delivered by an air compressor into the constant air stream described above, flowing in a copper delivery tube (i.d. 8 mm) with the outlet positioned approximately 1 cm from the antenna. The EAG amplitude tests of the OFM and PFM males’ responses to sex pheromones started with solvent control stimuli (20 μL of liquid paraffin), followed by stimulation with 20, 200, and 2000 μg doses (20 μL of 1.0, 10.0, and 100.0 μg/μL of liquid paraffin solutions, respectively) of stimulus in sequence. The solvent control was performed at the end of the run. To control for variations among antennae, each sample was tested on 10 antennae of different males. The EAG signals and data were analyzed using EAG 2000 software (Syntech, Hilversum, The Netherlands). The corrected EAG amplitude value = absolute EAG amplitude value − (EAGck1 + EAGck2)/2, where EAGck1 and EAGck2 represent the absolute EAG amplitude values of the solvent control before and after measuring each stimulus, respectively. The relative EAG response of the OFM and PFM males to the same doses of sex pheromones were subjected to an analysis of independent sample t-test (p = 0.05) using SPSS version 23.0 (IBM).

OFM male antennae = experiment: Electroantennogram (EAG) analysis; set-up: species or system Grapholita molesta; conditions: for EAG response of OFM males: 20, 200 and 2000 μg doses
Experimental: as §4

PFM males = experiment: Field trapping with delta traps, pear orchard; type: in vivo, Grapholita funebrana
Experimental: as §3

[1] = Z8-12:Ac/E8-12:Ac/Z10-14:Ac 500/20/25 μg (100:4:5)
[2] = Z8-12:Ac/E8-12:Ac/Z10-14:Ac 500/20/50 μg (100:4:10)
[3] = Z8-12:Ac/E8-12:Ac/Z10-14:Ac 500/20/100 μg (100:4:20)
[4] = Z8-12:Ac/E8-12:Ac/Z10-14:Ac 500/20/150 μg (100:4:30)
[5] = Z8-12:Ac/E8-12:Ac/Z10-14:Ac 500/20/250 μg (100:4:50)
[6] = Z8-12:Ac/E8-12:Ac/Z10-14:Ac 500/20/350 μg (100:4:70)
[7] = Z8-12:Ac/E8-12:Ac/Z10-14:Ac 500/20/450 μg (100:4:90)
[8] = Z8-12:Ac/E8-12:Ac/Z10-14:Ac 500/20/550 μg (100:4:110)
[9] = more than 10% of Z10-14:Ac added to Z8-12:Ac and E8-12:Ac (100:4)

Sequence of rGmolGOBP2 (H9XTU6 entry or part of it): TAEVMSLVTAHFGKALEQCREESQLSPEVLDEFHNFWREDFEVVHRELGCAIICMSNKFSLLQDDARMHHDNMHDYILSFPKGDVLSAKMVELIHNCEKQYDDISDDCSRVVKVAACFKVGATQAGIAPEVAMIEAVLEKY
Sequence of rGmolGOBP1 (H9XTU5 entry or part of it): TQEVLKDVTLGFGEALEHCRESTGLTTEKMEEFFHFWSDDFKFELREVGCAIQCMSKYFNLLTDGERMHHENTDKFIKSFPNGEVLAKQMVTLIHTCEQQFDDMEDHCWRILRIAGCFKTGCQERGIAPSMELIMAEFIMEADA
Sequence of rGmolPBP2 (wild-type) (A0A059VC28 entry or part of it): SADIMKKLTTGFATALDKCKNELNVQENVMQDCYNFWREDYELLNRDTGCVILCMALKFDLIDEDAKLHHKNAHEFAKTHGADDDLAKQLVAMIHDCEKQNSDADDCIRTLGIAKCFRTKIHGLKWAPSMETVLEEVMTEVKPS
Sequence of rGmolPBP1 (A0A2R4SBD6 entry or part of it): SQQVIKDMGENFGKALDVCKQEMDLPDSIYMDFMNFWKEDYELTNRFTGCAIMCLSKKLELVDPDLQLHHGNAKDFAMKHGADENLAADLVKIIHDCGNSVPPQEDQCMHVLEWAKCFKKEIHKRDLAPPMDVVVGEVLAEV
Sequence of rGmolPBP3 (A0A059VBP3 entry or part of it): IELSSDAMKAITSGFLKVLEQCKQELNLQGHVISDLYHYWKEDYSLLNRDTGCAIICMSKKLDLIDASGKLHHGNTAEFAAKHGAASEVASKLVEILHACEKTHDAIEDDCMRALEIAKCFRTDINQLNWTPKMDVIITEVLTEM

Compound: c1ccc(Nc2cccc3ccccc23)cc1 [1−NPN, N-Phenyl-1-naphthylamine, reference compound]
- Kd (rGmolPBP1): 1.29 ± 0.02 µM
- Kd (rGmolGOBP1): 5.76 ± 0.01 µM
- Kd (rGmolGOBP2): 4.32 ± 0.02 µM
- Kd (rGmolPBP2 (wild-type)): 1.09 ± 0.02 µM
- Kd (rGmolPBP3): 11.24 ± 0.08 µM

Compound: CCC/C=C\CCCCCCCCCOC(C)=O [Z10-14:Ac, (Z)-10-tetradecenyl acetate]
- Total OFM Males/Trap (OFM males; [1]): 125.55 ± 14.47 ab Males/Trap
- Inhibition Rate of OFM Males (OFM males; [1]): 35.04%
- Total OFM Males/Trap (OFM males; [2]): 97.92 ± 10.31 bc Males/Trap
- Inhibition Rate of OFM Males (OFM males; [2]): 49.34%
- Total OFM Males/Trap (OFM males; [3]): 83.33 ± 9.82 cd Males/Trap
- Inhibition Rate of OFM Males (OFM males; [3]): 56.89%
- Total OFM Males/Trap (OFM males; [4]): 33.56 ± 2.24 e Males/Trap
- Inhibition Rate of OFM Males (OFM males; [4]): 82.64%
- Total OFM Males/Trap (OFM males; [5]): 31.28 ± 3.22 e Males/Trap
- Inhibition Rate of OFM Males (OFM males; [5]): 83.82%
- Total OFM Males/Trap (OFM males; [6]): 37.49 ± 3.45 e Males/Trap
- Total OFM Males/Trap (OFM males; [7]): 23.64 ± 1.23 e Males/Trap
- Inhibition Rate of OFM Males (OFM males; [7]): 87.77%
- Total OFM Males/Trap (OFM males; [8]): 29.69 ± 2.18 e Males/Trap
- Inhibition Rate of OFM Males (OFM males; [8]): 84.64%
- maximum reduction of the capture of OFM males (OFM males; [9]): up to 87.77%
- EAG response of PFM males (PFM male antennae): moderate EAG response
- EAG values of OFM males compared with PFM males (OFM male antennae; 20 μg): absence of significant difference
- EAG response of OFM males (OFM male antennae): moderate EAG response
- EAG values of OFM males compared with PFM males (OFM male antennae; 200 and 2000 μg): significantly greater than that of PFM males
- Total PFM Males/Trap (PFM males; [1]): 121.32 ± 12.10 ab Males/Trap
- Total PFM Males/Trap (PFM males; [2]): 101.39 ± 7.72 b Males/Trap
- Total PFM Males/Trap (PFM males; [3]): 102.73 ± 10.21 b Males/Trap
- Total PFM Males/Trap (PFM males; [4]): 66.08 ± 8.27 c Males/Trap
- Total PFM Males/Trap (PFM males; [5]): 62.46 ± 5.63 c Males/Trap
- Total PFM Males/Trap (PFM males; [6]): 51.35 ± 7.21cd Males/Trap
- Total PFM Males/Trap (PFM males; [7]): 41.24 ± 5.10 d Males/Trap
- Total PFM Males/Trap (PFM males; [8]): 42.33 ± 3.95 d Males/Trap
- maximum reduction of the capture of PFM males (PFM males; [9]): ≤ 71.07%

Compound: CCC/C=C/CCCCCCCOC(C)=O [E8-12:Ac, (E)-8-dodecenyl acetate]
- EAG response of PFM males (PFM male antennae): higher sensitivity
- EAG response of OFM males (OFM male antennae): higher sensitivity

Compound: CCC/C=C\CCCCCCCOC(C)=O [Z8-12:Ac, (Z)-8-dodecenyl acetate]
- EAG response of PFM males (PFM male antennae): higher sensitivity
- EAG response of OFM males (OFM male antennae): higher sensitivity
